Source: US20160122320A1, “USEFUL COMBINATIONS OF MONOBACTAM ANTIBIOTICS WITH BETA-LACTAMASE INHIBITORS” (Basilea Pharmaceutica AG, priority 2005, published 2016)
Where a name gives a salt, the structure may show the parent alone.

Key:
Experiment in all cases: MIC, NCCLS broth microdilution
Assay type in all cases: cell-based
Acinetobacter sp. J2 = conditions: for MIC of antibiotic / MIC of antibiotic at fixed inhibitor concentration of 4 mg/L: Acinetobacter baumannii J2; for MIC of antibiotic: antibiotic alone, no inhibitor; for MIC of antibiotic at fixed inhibitor concentration (4 mg/L): Acinetobacter sp. J2, MIC of antibiotic compound 1 with the labelled bridged monobactam of formula II and clavulanate, 4 mg/L each
[1] = test system: Pseudomonas aeruginosa MK1184; conditions: for MIC of antibiotic: antibiotic alone, no inhibitor; for MIC of antibiotic at fixed inhibitor concentration (4 mg/L): MIC of antibiotic compound 1 with the labelled bridged monobactam of formula II and clavulanate, 4 mg/L each
Enterobacter cloacae P99 = conditions: for MIC of antibiotic: antibiotic alone, no inhibitor; for MIC of antibiotic at fixed inhibitor concentration (4 mg/L): MIC of antibiotic compound 1 with the labelled bridged monobactam of formula II and clavulanate, 4 mg/L each
[2] = test system: Klebsiella pneumoniae CF104; conditions: for MIC of antibiotic: antibiotic alone, no inhibitor; for MIC of antibiotic at fixed inhibitor concentration (4 mg/L): MIC of antibiotic compound 1 with the labelled bridged monobactam of formula II and clavulanate, 4 mg/L each
[3] = test system: Pseudomonas aeruginosa 1973E; conditions: for MIC of antibiotic: antibiotic alone, no inhibitor; for MIC of antibiotic at fixed inhibitor concentration (4 mg/L): MIC of antibiotic compound 1 with the labelled bridged monobactam of formula II and clavulanate, 4 mg/L each
Method: Antimicrobial activity of the compounds and of their combinations was determined against a selection of organisms according to the standard procedures described by the National Committee for Clinical Laboratory Standards (National Committee for Clinical Laboratory. Standards (2000). Methods for Dilution Antimicrobial Susceptibility Tests for Bacteria That Grow Aerobically-Fifth Edition: Approved Standard M7-A5. NCCLS, Wayne, Pa., USA).
In all cases the final concentration of DMSO incubated with the bacteria is less than or equal to 1%. […] Plates were incubated overnight at an appropriate temperature (30° C. or 37° C.) and optical densities assessed by eye. The MIC value is defined as the lowest compound concentration completely inhibiting visible growth of the test organism. When combinations between compounds of formula I with compounds of formula II and are evaluated the compounds of formula I are tested in dilution series as described above while the compounds of formula II and III-XIII were present in all wells at a constant concentration of 4 μg/mL each.

[4] = test system: Stenotrophomonas malthophilia 1AC736; conditions: for MIC of antibiotic / MIC of antibiotic at fixed inhibitor concentration of 4 mg/L: Stenotrophomonas maltophilia 1AC736; for MIC of antibiotic: antibiotic alone, no inhibitor; for MIC of antibiotic at fixed inhibitor concentration (4 mg/L): Stenotrophomonas malthophilia 1AC736, MIC of antibiotic compound 1 with the labelled bridged monobactam of formula II and clavulanate, 4 mg/L each
Serratia marcescens S6 = conditions: for MIC of antibiotic: antibiotic alone, no inhibitor; for MIC of antibiotic at fixed inhibitor concentration (4 mg/L): MIC of antibiotic compound 1 with the labelled bridged monobactam of formula II and clavulanate, 4 mg/L each

Structure (SMILES)	MIC of antibiotic (Acinetobacter sp. J2) [µg/mL]	MIC of antibiotic [1] [µg/mL]	MIC of antibiotic (Enterobacter cloacae P99) [µg/mL]	MIC of antibiotic [2] [µg/mL]	MIC of antibiotic [3] [µg/mL]	MIC of antibiotic [4] [µg/mL]	MIC of antibiotic (Serratia marcescens S6) [µg/mL]	MIC of antibiotic at fixed inhibitor concentration (4 mg/L) (Acinetobacter sp. J2) [µg/mL]	MIC of antibiotic at fixed inhibitor concentration (4 mg/L) [1] [µg/mL]	MIC of antibiotic at fixed inhibitor concentration (4 mg/L) (Enterobacter cloacae P99) [µg/mL]	MIC of antibiotic at fixed inhibitor concentration (4 mg/L) [2]	MIC of antibiotic at fixed inhibitor concentration (4 mg/L) [3] [µg/mL]	MIC of antibiotic at fixed inhibitor concentration (4 mg/L) [4] [µg/mL]	MIC of antibiotic at fixed inhibitor concentration (4 mg/L) (Serratia marcescens S6) [µg/mL]	further results
C[C@H](ON1C(=O)[C@@H](NC(=O)/C(=N\OCc2cc(=O)c(O)cn2O)c2csc(N)n2)[C@@H]1C)C(=O)O [Compound 23, (2S)-2-((3S,4S)-3-{(2Z)-2-(2-amino(1,3-thiazol-4-yl))-3-[(1,5-dihydroxy-4-oxo(2-hydropyridyl))methoxy]-3-azaprop-2enoylamino}-4-methyl-2-oxoazetidinyloxy)propanoic acid]	16	8	>32	>32	8	1	0.25	–	–	–	–	–	–	–	MIC of antibiotic at fixed inhibitor concentration of 4 mg/L (Acinetobacter sp. J2; with 102 and clavulanate): 8 µg/mL; MIC of antibiotic at fixed inhibitor concentration of 4 mg/L (Acinetobacter sp. J2; with 324 and clavulanate): 8 µg/mL; MIC of antibiotic at fixed inhibitor concentration of 4 mg/L (Acinetobacter sp. J2; with 324 and sulbactam): 2 µg/mL; MIC of antibiotic at fixed inhibitor concentration of 4 mg/L ([1]; with 102 and clavulanate): 8 µg/mL; MIC of antibiotic at fixed inhibitor concentration of 4 mg/L ([1]; with 324 and clavulanate): 8 µg/mL; MIC of antibiotic at fixed inhibitor concentration of 4 mg/L ([1]; with 324 and sulbactam): 8 µg/mL; MIC of antibiotic at fixed inhibitor concentration of 4 mg/L (Enterobacter cloacae P99; with 102 and clavulanate): 8 µg/mL; MIC of antibiotic at fixed inhibitor concentration of 4 mg/L (Enterobacter cloacae P99; with 324 and clavulanate): 4 µg/mL; MIC of antibiotic at fixed inhibitor concentration of 4 mg/L (Enterobacter cloacae P99; with 324 and sulbactam): 8 µg/mL; MIC of antibiotic at fixed inhibitor concentration of 4 mg/L ([2]; with 102 and clavulanate): 1 µg/mL; MIC of antibiotic at fixed inhibitor concentration of 4 mg/L ([2]; with 324 and clavulanate): 1 µg/mL; MIC of antibiotic at fixed inhibitor concentration of 4 mg/L ([2]; with 324 and sulbactam): 2 µg/mL; MIC of antibiotic at fixed inhibitor concentration of 4 mg/L ([3]; with 102 and clavulanate): 8 µg/mL; MIC of antibiotic at fixed inhibitor concentration of 4 mg/L ([3]; with 324 and clavulanate): 16 µg/mL; MIC of antibiotic at fixed inhibitor concentration of 4 mg/L ([3]; with 324 and sulbactam): 16 µg/mL; MIC of antibiotic at fixed inhibitor concentration of 4 mg/L (Serratia marcescens S6; with 102 and clavulanate): 0.25 µg/mL; MIC of antibiotic at fixed inhibitor concentration of 4 mg/L (Serratia marcescens S6; with 324 and clavulanate): 0.25 µg/mL; MIC of antibiotic at fixed inhibitor concentration of 4 mg/L (Serratia marcescens S6; with 324 and sulbactam): 0.5 µg/mL
CC1C(NC(=O)C(=NOCc2cc(=O)c(O)cn2O)c2noc(N)n2)C(=O)N1S(=O)(=O)O (centres unmarked) [Compound 16]	>32	>32	>32	>32	>32	>32	>32	–	–	–	–	–	–	–	MIC of antibiotic at fixed inhibitor concentration of 4 mg/L (Acinetobacter sp. J2; with 102 and clavulanate): 16 µg/mL; MIC of antibiotic at fixed inhibitor concentration of 4 mg/L ([1]; with 102 and clavulanate): 16 µg/mL; MIC of antibiotic at fixed inhibitor concentration of 4 mg/L (Enterobacter cloacae P99; with 102 and clavulanate): >32 µg/mL; MIC of antibiotic at fixed inhibitor concentration of 4 mg/L ([2]; with 102 and clavulanate): 32 µg/mL; MIC of antibiotic at fixed inhibitor concentration of 4 mg/L ([3]; with 102 and clavulanate): 16 µg/mL; MIC of antibiotic at fixed inhibitor concentration of 4 mg/L ([4]; with 102 and clavulanate): 2 µg/mL; MIC of antibiotic at fixed inhibitor concentration of 4 mg/L (Serratia marcescens S6; with 102 and clavulanate): >32 µg/mL
COc1cc(CNC(=O)N2CC[C@@H]3[C@H]2C(=O)N3S(=O)(=O)[O-])on1.[Na+] [Compound 313]	–	–	–	–	–	–	–	4	>32	16	0.5 µg/mL	4	0.125	0.25	–
CCOC(=O)c1cccc(NC(=O)N2CC[C@@H]3[C@H]2C(=O)N3S(=O)(=O)[O-])c1.[Na+] [Compound 320, Sodium(1S,5R)-2-{N-[3-(ethoxycarbonyl)phenyl]carbamoyl}-7-oxo-2,6-diazabicyclo[3.2.0]heptane-6-sulfonate]	–	–	–	–	–	–	–	>32	>32	8	0.5 µg/mL	8	0.125	0.25	–
COC(=O)c1ccc[n+](CC(=O)N2CC[C@@H]3[C@H]2C(=O)N3S(=O)(=O)[O-])c1C [Compound 115, (1S,5R)-2-{2-[3-(methoxycarbonyl)-2-methylpyridinium]acetyl}-7-oxo-2,6-diazabicyclo[3.2.0]heptane-6-sulfonate, inner salt]	–	–	–	–	–	–	–	>32	16	32	0.125 µg/mL	4	0.125	0.25	–
O=C(C[n+]1ccc2c(c1)CCCC2)N1CC[C@@H]2[C@H]1C(=O)N2S(=O)(=O)[O-] [Compound 106, (1S,5R)-7-oxo-2-(2-(2-5,6,7,8-tetrahydroisoquinolinium)acetyl)-2,6-diazabicyclo[3.2.0]heptane-6-sulfonate, inner salt]	–	–	–	–	–	–	–	>32	32	>32	0.25 µg/mL	4	0.125	0.25	–
O=C(Nc1ccccc1)N1CC[C@@H]2[C@H]1C(=O)N2S(=O)(=O)[O-].[Na+] [Compound 301]	–	–	–	–	–	–	–	8	>32	16	1 µg/mL	4	0.125	0.25	–
CN(C)c1cc[n+](CC(=O)N2CC[C@@H]3[C@H]2C(=O)N3S(=O)(=O)[O-])cc1 [Compound 112, (1S,5R)-2-{2-[4-(dimethylamino)pyridinium]acetyl}-7-oxo-2,6-diazabicyclo[3.2.0]heptane-6-sulfonate, inner salt]	–	–	–	–	–	–	–	16	>32	>32	<=0.06 mg/L	8	0.125	0.5	–
CC1C(NC(=O)C(=NOCc2cc(=O)c(O)cn2O)c2csc(NC=O)n2)C(=O)N1S(=O)(=O)O (centres unmarked) [Compound 28]	>32	>32	>32	>32	>32	8	8	–	–	–	–	–	–	–	MIC of antibiotic at fixed inhibitor concentration of 4 mg/L (Acinetobacter sp. J2; with 102 and clavulanate): >32 µg/mL; MIC of antibiotic at fixed inhibitor concentration of 4 mg/L ([1]; with 102 and clavulanate): 32 µg/mL; MIC of antibiotic at fixed inhibitor concentration of 4 mg/L (Enterobacter cloacae P99; with 102 and clavulanate): >32 µg/mL; MIC of antibiotic at fixed inhibitor concentration of 4 mg/L ([2]; with 102 and clavulanate): 0.5 µg/mL; MIC of antibiotic at fixed inhibitor concentration of 4 mg/L ([3]; with 102 and clavulanate): 16 µg/mL; MIC of antibiotic at fixed inhibitor concentration of 4 mg/L ([4]; with 102 and clavulanate): 1 µg/mL; MIC of antibiotic at fixed inhibitor concentration of 4 mg/L (Serratia marcescens S6; with 102 and clavulanate): 1 µg/mL
CC1C(NC(=O)C(=NOCc2cc(=O)c(O)cn2O)c2nsc(N)n2)C(=O)N1S(=O)(=O)O (centres unmarked) [Compound 2]	4	8	>32	>32	8	4	>32	–	–	–	–	–	–	–	MIC of antibiotic at fixed inhibitor concentration of 4 mg/L (Acinetobacter sp. J2; with 206 and clavulanate): 16 µg/mL; MIC of antibiotic at fixed inhibitor concentration of 4 mg/L ([1]; with 206 and clavulanate): 16 µg/mL; MIC of antibiotic at fixed inhibitor concentration of 4 mg/L (Enterobacter cloacae P99; with 206 and clavulanate): 16 µg/mL; MIC of antibiotic at fixed inhibitor concentration of 4 mg/L ([2]; with 206 and clavulanate): 8 µg/mL; MIC of antibiotic at fixed inhibitor concentration of 4 mg/L ([3]; with 206 and clavulanate): 8 µg/mL; MIC of antibiotic at fixed inhibitor concentration of 4 mg/L ([4]; with 206 and clavulanate): 0.5 µg/mL; MIC of antibiotic at fixed inhibitor concentration of 4 mg/L (Serratia marcescens S6; with 206 and clavulanate): >32 µg/mL
NC(=S)c1cc[n+](CC(=O)N2CC[C@@H]3[C@H]2C(=O)N3S(=O)(=O)[O-])cc1 [Compound 118, (1S,5R)-2-{2-[4-(aminothioxomethyl)pyridinium]acetyl}-7-oxo-2,6-diazabicyclo[3.2.0]heptane-6-sulfonate, inner salt]	–	–	–	–	–	–	–	>32	32	32	0.125 µg/mL	4	0.125	0.25	–
